According to publication PMC4467398, “Preclinical antitumor activity of ST7612AA1: a new oral thiol-based histone deacetylase (HDAC) inhibitor” (Oncotarget, 2014):
“Also recorded” adds a separate entry of the source.

Tests used:
GCB-DLBCL model DOHH2 = assay: In vivo lymphoma xenograft model; design: species or system NOD-SCID mice; settings: po at days 12, 13, 15, 16, 18, 19 after tumor injection; vs control mice
Procedure: The in vivo experiment with lymphoma model was performed in the IOR laboratory according to study protocols approved by the local Cantonal Veterinary Authority (No. 5/2011). At day 1, tumors were established by injecting DOHH2 lymphoma cells (200 μL of PBS, 8×10^6 cells/mouse) into the left flanks of 5-weeks old female NOD-SCID mice (Harlan Laboratories). Tumor size was measured on regular basis and until tumors reached around […] in diameter (day 12). Then, treatments were conducted at day 12, 13, 15, 16, 18, 19. Tumors were measured at 12, 14, 17, 21, 25 days. Tumor volumes were calculated as described above. Mice were sacrificed when physical conditions became critical or when tumors reached a weight of about 0.5 gr. For comparison between a control and a treatment group, an unpaired Mann-Whitney's test was used. A P-value <0.05 was considered significant.

Ovarian cancer A2780 = assay: In vitro proliferation assay (sulphorodamine B); type: cell-based; settings: Homo sapiens, 72 h, mean ± S.E.M.
[1] = system: Splenic marginal zone lymphoma VL51; assay: In vitro proliferation assay (MTT); type: cell-based; settings: Homo sapiens, 72 h, mean ± S.E.M.
Procedure: (§1) Anti-proliferative activity was first assessed on a panel of cell lines derived from solid tumors and hematological cancers and then on a large panel of cell lines derived from mature B-cell lymphomas. […] Lymphoma cells were seeded in 96-wells tissue culture plates in complete medium and were exposed to increasing concentrations of ST7612AA1 for 48 or 72 h; the anti-proliferative activity was assessed using 3-(4,5-dimethylthiazol-2-yl)-2,5-diphenyltetrazolium bromide (MTT). The drug potency was evaluated by means of the “ALLFIT” computer program and defined as IC50 (drug concentration required for 50% inhibition of cell survival).

GCB-DLBCL VAL = assay: In vitro proliferation assay (MTT); type: cell-based; settings: Homo sapiens, 72 h, mean ± S.E.M.
Procedure: as §1

ABC-DLBCL OCI-Ly10 = assay: In vitro proliferation assay (MTT); type: cell-based; settings: Homo sapiens, 72 h, mean ± S.E.M.
Procedure: as §1

ABC-DLBCL TMD8 = assay: In vitro proliferation assay (MTT); type: cell-based; settings: Homo sapiens, 72 h, mean ± S.E.M.
Procedure: as §1

[2] = system: Splenic marginal zone lymphoma SSK41; assay: In vitro proliferation assay (MTT); type: cell-based; settings: Homo sapiens, 72 h, mean ± S.E.M.
Procedure: as §1

GCB-DLBCL DOHH2 = assay: In vitro proliferation assay (MTT); type: cell-based; settings: Homo sapiens, DOHH-2, 72 h, mean ± S.E.M.
Procedure: as §1

GCB-DLBCL OCI-Ly8 = assay: In vitro proliferation assay (MTT); type: cell-based; settings: Homo sapiens, 72 h, mean ± S.E.M.
Procedure: as §1

ABC-DLBCL U2932 = assay: In vitro proliferation assay (MTT); type: cell-based; settings: Homo sapiens, 72 h, mean ± S.E.M.
Procedure: as §1

[3] = system: Splenic marginal zone lymphoma K1718; assay: In vitro proliferation assay (MTT); type: cell-based; settings: Homo sapiens, 72 h, mean ± S.E.M.
Procedure: as §1

GCB-DLBCL SUDHL-6 = assay: In vitro proliferation assay (MTT); type: cell-based; settings: Homo sapiens, SU-DHL-6, 72 h, mean ± S.E.M.
Procedure: as §1

GCB-DLBCL SUDHL-4 = assay: In vitro proliferation assay (MTT); type: cell-based; settings: Homo sapiens, SU-DHL-4, 72 h, mean ± S.E.M.
Procedure: as §1

[4] = system: Mantle cell lymphoma Jeko-1; assay: In vitro proliferation assay (MTT); type: cell-based; settings: Homo sapiens, 72 h, mean ± S.E.M.
Procedure: as §1

GCB-DLBCL OCI-Ly7 = assay: In vitro proliferation assay (MTT); type: cell-based; settings: Homo sapiens, 72 h, mean ± S.E.M.
Procedure: as §1

[5] = system: Mantle cell lymphoma Granta-519; assay: In vitro proliferation assay (MTT); type: cell-based; settings: Homo sapiens, 72 h, mean ± S.E.M.
Procedure: as §1

T-cell lymphoma HUT78 = assay: In vitro proliferation assay (MTT); type: cell-based; settings: Homo sapiens, 72 h, mean ± S.E.M.
Procedure: as §1

[6] = system: Mantle cell lymphoma REC-1; assay: In vitro proliferation assay (MTT); type: cell-based; settings: Homo sapiens, Rec1, 72 h, mean ± S.E.M.
Procedure: as §1

GCB-DLBCL Karpas422 = assay: In vitro proliferation assay (MTT); type: cell-based; settings: Homo sapiens, KARPAS-422, 72 h, mean ± S.E.M.
Procedure: as §1

[7] = system: Mantle cell lymphoma MAVER1; assay: In vitro proliferation assay (MTT); type: cell-based; settings: Homo sapiens, 72 h, mean ± S.E.M.
Procedure: as §1

NSCLC NCI-H460 = assay: In vitro proliferation assay (sulphorodamine B); type: cell-based; settings: Homo sapiens, 72 h, mean ± S.E.M.
Colon cancer HCT116 = assay: In vitro proliferation assay (sulphorodamine B); type: cell-based; settings: Homo sapiens, HCT-116, 72 h, mean ± S.E.M.
lymphoma cell lines = assay: Detection of apoptotic cells (Annexin V-FITC, flow cytometry); type: cell-based, human; settings: 250 nM, 72 hrs; eight lymphoma cell lines
Procedure: Apoptosis was assessed, on cells treated with DMSO or different doses of ST7612AA1, by Annexin V-FITC apoptosis detection kit (BD Biosciences), according to the manufacturer's recommendations, on a FACScan flow cytometer (BD Biosciences).

[8] = system: acetylation of alpha-tubulin in NCI-H460 NSCLC cells; assay: Western blot with densitometry, tubulin acetylation; type: cell-based, human; settings: for Acetyl tub./tubulin: NCI-H460, vehicle 0,341
Procedure: For assessing the in vitro effect of ST7612AA1 on acetylation of α-tubulin and histones, NSCLC cells were treated with the test compound at various concentrations (dose-response curve). SAHA 5 μM was used as reference inhibitor. Protein extraction, separation and immunoblotting were performed as previously described. Immunoreactive bands were finally subjected to densitometry analysis by a phosphoimaging system (STORM, Molecular Dynamics), and then the IC50 values were calculated by the “ALLFIT” computer program. The antibodies used are listed in Supplementary Table 2.

Breast cancer MDA-MB436 = assay: In vitro proliferation assay (sulphorodamine B); type: cell-based; settings: Homo sapiens, MDA-MB-436, 72 h, mean ± S.E.M.
[9] = system: cell lines derived from epithelial cancers (lung, breast, colon, ovarian) and from leukemias and lymphomas; assay: In vitro proliferation assay, first broad panel (summary); type: cell-based; settings: first broad panel of human tumor cell lines; read-out: IC50 values, range over the panel
Procedure: as §1

Structure (SMILES): CC(=O)SCCCCC[C@H](NC(=O)[C@H]1CCC(=O)N1)C(=O)Nc1ccccc1 [ST7612AA1]
- tumor progression / tumor volumes (GCB-DLBCL model DOHH2): decreased tumor volumes; also recorded: significant delay in tumor progression
- IC50 (Ovarian cancer A2780): 43 ± 10 nM
- IC50 [1]: 120 nM
- IC50 (GCB-DLBCL VAL): 2360 nM
- IC50 (ABC-DLBCL OCI-Ly10): 260 nM
- IC50 (ABC-DLBCL TMD8): 100 ± 30 nM
- IC50 [2]: 260 nM
- IC50 (GCB-DLBCL DOHH2): 46 ± 10 nM
- IC50 (GCB-DLBCL OCI-Ly8): 240 nM
- IC50 (ABC-DLBCL U2932): 800 nM
- IC50 [3]: 100 ± 10 nM
- IC50 (GCB-DLBCL SUDHL-6): 630 nM
- IC50 (GCB-DLBCL SUDHL-4): 980 nM
- IC50 [4]: 250 ± 10 nM
- IC50 (GCB-DLBCL OCI-Ly7): 560 nM
- IC50 [5]: 470 nM
- IC50 (T-cell lymphoma HUT78): 480 ± 20 nM
- IC50 [6]: 550 nM
- IC50 (GCB-DLBCL Karpas422): 2660 nM
- IC50 [7]: 390 nM
- IC50 (NSCLC NCI-H460): 66 ± 10 nM
- IC50 (Colon cancer HCT116): 75 ± 10 nM
- apoptosis (Annexin V positive cells) (lymphoma cell lines): moderate apoptosis in three out of eight lymphoma cell lines
- Acetyl tub./tubulin ([8]; 0,2 µM): 1,181
- Acetyl tub./tubulin ([8]; 0,04 µM): 0,649
- Acetyl tub./tubulin ([8]; 1 µM): 2,012
- Acetyl tub./tubulin ([8]; 0,008 µM): 0,588
- IC50 ([8]; Homo sapiens, NCI-H460, 3 h exposure, Western blot densitometry, read-out: IC50 for increasing the acetylation of tubulin): 200 nM
- IC50 (Breast cancer MDA-MB436): 180 ± 10 nM
- IC50 [9]: 43 to 500 nM
